± gives the standard deviation of the averaged measurements.
Tests used:
Experiment in all cases: level (log10 ratio to DMSO vehicle control); higher = higher biomarker level / cell amount than vehicle control
[1] = compound: C[C@@H]1C[C@H]2[C@@H]3CCC4=CC(=O)C=C[C@]4(C)[C@@]3(F)[C@@H](O)C[C@]2(C)[C@@]1(O)C(=O)COP(=O)(O)O [Dexamethasone sodium phosphate] (in DMSO)
Method: (§1)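 BioMAP Diversity Plus panel of 12 human primary cell co-culture systems (3C, 4H, LPS, SAg, BT, BF4T, BE3C, CASM3C, HDF3CGF, KF3CT, MyoF, Mphg). Compounds were added 1 h before stimulation and left for 24 h (MyoF 48 h; BT 72 h for soluble read-outs or 6 d for IgG). Biomarkers were read by ELISA, cytotoxicity by SRB, PBMC viability and proliferation by Alamar Blue. Each well value was divided by the mean of 8 DMSO control wells on the same plate and log10 transformed; duplicate blinded samples were tested at 4 concentrations.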

[2] = compound: NS(=O)(=O)C(F)(F)C(F)(F)C(F)(F)C(F)(F)C(F)(F)C(F)(F)C(F)(F)C(F)(F)F [Perfluorooctanesulfonamide] (in DMSO)
Method: as §1

[3] = compound: O=C(O)C(F)(F)C(F)(F)C(F)(F)OC(F)(F)F [Perfluoro(4-methoxybutanoic) acid] (in DMSO)
Method: as §1

[4] = compound: O=C(O)C(F)(OC(F)(F)C(F)(F)C(F)(F)F)C(F)(F)F [Ammonium perfluoro-2-methyl-3-oxahexanoate] (in Water)
Method: as §1

[5] = compound: O=C(O)C=C(C(F)(F)F)C(F)(F)F [3,3-Bis(trifluoromethyl)-2-propenoic acid] (in DMSO)
Method: as §1

[6] = compound: OCC(F)(F)C(F)(F)C(F)(F)C(F)F [1H,1H,5H-Perfluoropentanol] (in DMSO)
Method: as §1

| Test System | level (log10) ([1]; 1500 nM) | level (log10) ([1]; 4400 nM) | level (log10) ([1]; 13000 nM) | level (log10) ([1]; 40000 nM) | level (log10) ([2]; 6700 nM) | level (log10) ([2]; 20000 nM) | level (log10) ([3]; 6700 nM) | level (log10) ([3]; 20000 nM) | level (log10) ([3]; 60000 nM) | level (log10) ([4]; 6700 nM) | level (log10) ([4]; 20000 nM) | level (log10) ([4]; 60000 nM) | level (log10) ([5]; 6700 nM) | level (log10) ([5]; 20000 nM) | level (log10) ([5]; 60000 nM) | level (log10) ([6]; 6700 nM) | level (log10) ([6]; 20000 nM) | level (log10) ([6]; 60000 nM) |
| --- | --- | --- | --- | --- | --- | --- | --- | --- | --- | --- | --- | --- | --- | --- | --- | --- | --- | --- |
| 3C:CCL2/MCP-1 | 0.012 ± 0.013 | -0.0125 ± 0.005 | -0.0155 ± 0.00071 | -0.004 ± 0.013 | -0.0015 ± 0.0021 | 0.085 ± 0.0057 | -0.012 ± 0.0028 | -0.006 ± 0.0028 | 0.031 ± 0.041 | -0.003 ± 0.0085 | -0.004 ± 0.016 | 0.056 ± 0.05 | 0.001 ± 0.011 | -0.0065 ± 0.0064 | 0.0015 ± 0.037 | -0.0055 ± 0.015 | 0.03 ± 0.024 | 0.042 ± 0.045 |
| 3C:CD54/ICAM-1 | -0.006 ± 0.04 | -0.019 ± 0.013 | -0.0145 ± 0.022 | -0.0125 ± 0.00071 | -0.0005 ± 0.005 | 0.002 ± 0.011 | -0.0205 ± 0.011 | -0.0275 ± 0.00071 | -0.029 ± 0.0014 | -0.0255 ± 0.0092 | 0.0065 ± 0.00071 | 0.0055 ± 0.011 | -0.002 ± 0.0071 | -0.018 ± 0.0071 | -0.0095 ± 0.018 | -0.028 ± 0.0085 | -0.003 ± 0.0099 | 0.0125 ± 0.023 |
| 3C:CD62E/E-Selectin | -0.0055 ± 0.011 | -0.024 ± 0.024 | -0.005 ± 0.024 | 0.0005 ± 0.0078 | -0.006 ± 0.02 | 0.043 ± 0.011 | -0.012 ± 0.057 | -0.0085 ± 0.046 | -0.014 ± 0.0085 | 0.0025 ± 0.005 | 0.0105 ± 0.011 | 0.011 ± 0.011 | -0.044 ± 0.0057 | -0.081 | -0.123 ± 0.026 | -0.018 ± 0.018 | -0.015 | 0.008 ± 0.0014 |
| 3C:CD106/VCAM-1 | 0.0035 ± 0.043 | -0.009 ± 0.016 | -0.031 ± 0.017 | -0.0265 ± 0.0064 | -0.0005 ± 0.012 | 0.003 ± 0.013 | -0.007 ± 0.0071 | -0.0145 ± 0.035 | -0.0265 ± 0.0078 | -0.0065 ± 0.0035 | -0.0245 ± 0.0035 | -0.0155 ± 0.00071 | -0.0575 ± 0.03 | -0.0805 ± 0.025 | -0.157 ± 0.017 | -0.0245 ± 0.0078 | -0.012 | 0.0075 ± 0.0035 |
| 3C:CD141/Thrombomodulin | 0.0105 ± 0.074 | -0.015 ± 0.052 | -0.0055 ± 0.04 | -0.045 ± 0.062 | 0.018 ± 0.0099 | 0.107 ± 0.0014 | 0.003 ± 0.055 | -0.0165 ± 0.11 | -0.0245 ± 0.12 | -0.0395 ± 0.03 | -0.0315 ± 0.011 | -0.057 ± 0.0028 | 0.023 ± 0.0057 | 0.0025 ± 0.00071 | 0.0215 ± 0.037 | -0.006 ± 0.011 | -0.013 ± 0.013 | 0.0195 ± 0.011 |
| 3C:CD142/Tissue Factor | 0.034 ± 0.038 | 0.0265 ± 0.015 | 0.0335 ± 0.0078 | 0.0775 ± 0.028 | -0.05 ± 0.017 | -0.033 ± 0.031 | 0.0125 ± 0.077 | 0.013 ± 0.095 | -0.021 ± 0.12 | 0.0735 ± 0.012 | 0.0805 ± 0.0078 | 0.0805 ± 0.00071 | 0.0445 ± 0.018 | -0.022 ± 0.037 | -0.138 ± 0.052 | -0.0095 ± 0.00071 | -0.014 ± 0.025 | 0.021 ± 0.0085 |
| BE3C:Keratin 8/18 | 0.0045 ± 0.012 | 0.0035 ± 0.00071 | -0.025 ± 0.0042 | -0.0165 ± 0.0064 | -0.0475 ± 0.013 | -0.0185 ± 0.0021 | -0.013 ± 0.0057 | -0.002 ± 0.0071 | -0.004 ± 0.011 | -0.042 ± 0.0042 | -0.019 ± 0.024 | -0.0165 ± 0.0092 | -0.001 ± 0.0014 | -0.0025 ± 0.005 | 0.014 ± 0.031 | -0.0225 ± 0.011 | 0.0135 ± 0.005 | 0.0035 ± 0.025 |
| BE3C:MMP-1 | -0.113 ± 0.059 | -0.0825 ± 0.11 | -0.137 ± 0.052 | -0.141 ± 0.069 | 0.084 ± 0.021 | 0.154 ± 0.014 | 0.0115 ± 0.012 | -0.009 ± 0.041 | 0.029 ± 0.095 | 0.0325 ± 0.032 | 0.062 ± 0.038 | 0.136 ± 0.013 | -0.066 ± 0.0099 | -0.0425 ± 0.005 | 0.0305 ± 0.073 | -0.014 ± 0.011 | 0.029 ± 0.024 | 0.023 ± 0.03 |
| BE3C:MMP-9 | -0.02 ± 0.0028 | -0.0185 ± 0.013 | -0.013 ± 0.0028 | -0.036 ± 0.0099 | -0.101 ± 0.016 | -0.131 ± 0.0014 | -0.008 ± 0.0014 | 0.0035 ± 0.0064 | 0.011 ± 0.0057 | -0.109 ± 0.051 | -0.09 ± 0.03 | -0.063 ± 0.035 | -0.0425 ± 0.005 | -0.0735 ± 0.0021 | -0.079 ± 0.027 | -0.009 ± 0.016 | 0.0235 ± 0.018 | 0.0175 ± 0.022 |
| BE3C:PAI-I | 0.0905 ± 0.025 | 0.109 ± 0.016 | 0.098 ± 0.028 | 0.0635 ± 0.054 | -0.194 ± 0.03 | -0.202 ± 0.016 | -0.005 ± 0.0085 | -0.001 ± 0.025 | -0.0005 ± 0.0021 | -0.0995 ± 0.057 | -0.092 ± 0.044 | -0.124 ± 0.012 | -0.043 ± 0.0042 | -0.0315 ± 0.005 | -0.0085 ± 0.032 | -0.043 ± 0.021 | 0.023 ± 0.048 | 0.0495 ± 0.047 |
| BE3C:SRB | 0.0135 ± 0.013 | 0.003 ± 0.0014 | 0.002 ± 0.0014 | 0.0115 ± 0.0064 | -0.0145 ± 0.0021 | -0.0315 ± 0.00071 | 0.0015 ± 0.0021 | 0.0005 ± 0.0078 | 0.003 ± 0.0099 | -0.003 ± 0.0042 | 0 ± 0.0014 | 0.003 ± 0.0099 | -0.005 ± 0.0042 | -0.0025 ± 0.0035 | 0.01 ± 0.0057 | 0 ± 0.0014 | 0.0025 ± 0.0092 | 0.007 ± 0.011 |
| BE3C:tPA | -0.149 ± 0.029 | -0.175 ± 0.013 | -0.219 ± 0.062 | -0.197 ± 0.0035 | 0.0025 ± 0.035 | -0.058 ± 0.055 | 0.002 ± 0.023 | -0.0065 ± 0.011 | -0.0015 ± 0.016 | -0.101 ± 0.047 | -0.0935 ± 0.021 | -0.0945 ± 0.021 | -0.16 ± 0.041 | -0.166 ± 0.0042 | -0.179 ± 0.073 | -0.019 ± 0.0042 | -0.022 ± 0.017 | -0.0035 ± 0.011 |
| BE3C:uPA | -0.0165 ± 0.005 | -0.0125 ± 0.021 | -0.036 ± 0.027 | -0.051 ± 0.038 | -0.0065 ± 0.013 | 0.0145 ± 0.0064 | -0.004 ± 0.017 | -0.0125 ± 0.012 | 0.0035 ± 0.005 | 0.033 ± 0.027 | 0.0315 ± 0.016 | 0.0245 ± 0.012 | -0.0205 ± 0.011 | -0.015 ± 0.0099 | -0.0045 ± 0.018 | -0.0105 ± 0.016 | 0.001 ± 0.011 | 0.002 ± 0.041 |
| CASM3C:CCL2/MCP-1 | -0.0825 ± 0.05 | -0.105 ± 0.037 | -0.113 ± 0.0042 | -0.086 ± 0.047 | 0.01 ± 0.013 | 0.01 ± 0.023 | -0.01 ± 0.011 | -0.008 ± 0.0057 | 0.017 ± 0.031 | -0.0235 ± 0.021 | -0.034 ± 0.035 | -0.013 ± 0.013 | -0.03 ± 0.0028 | -0.0425 ± 0.00071 | -0.0465 ± 0.022 | -0.0115 ± 0.012 | -0.0105 ± 0.013 | -0.0015 ± 0.011 |
| CASM3C:CD87/uPAR | 0.0255 ± 0.011 | 0.0045 ± 0.005 | -0.026 ± 0.024 | -0.0215 ± 0.076 | -0.007 ± 0.031 | -0.0055 ± 0.026 | -0.0135 ± 0.04 | -0.0095 ± 0.0092 | -0.0255 ± 0.016 | -0.031 ± 0.076 | 0.0075 ± 0.011 | 0.014 ± 0.027 | -0.0235 ± 0.023 | -0.029 ± 0.031 | -0.031 ± 0.023 | 0.0065 ± 0.021 | 0.025 ± 0.017 | 0.005 ± 0.021 |
| CASM3C:CD106/VCAM-1 | 0.117 ± 0.06 | 0.11 ± 0.049 | 0.0875 ± 0.016 | 0.076 ± 0.054 | -0.0185 ± 0.0021 | -0.0405 ± 0.037 | -0.0045 ± 0.057 | -0.0015 ± 0.042 | -0.008 ± 0.035 | -0.0955 ± 0.061 | -0.0645 ± 0.005 | -0.083 ± 0.011 | -0.152 ± 0.012 | -0.216 ± 0.021 | -0.284 ± 0.054 | 0.0335 ± 0.023 | 0.027 ± 0.065 | 0.0395 ± 0.013 |

— the supplement of paper PMC10331698
